Like-named read-outs stand apart in the source and are kept apart here.
Experiments:
[1] = test system: inner mitochondrial membrane nonselective monovalent cation conductance (NMCC); type: biochemical, mouse
Method: The homogenate was centrifuged at 700 g for 5-10 min to pellet nuclei and unbroken cells. For some tissues, the first nuclear pellet was resuspended in the same solution and homogenized again to increase the yield of mitochondria. Mitochondria were collected by centrifugation of the supernatant at 8,500 g for 10 min. Mitochondria were suspended in a solution containing 140 mM sucrose, 440 mM D-mannitol, 5 mM HEPES, and 1 mM EGTA (pH adjusted to 7.2 with KOH), and then subjected to a French press at 2,000 psi to rupture the outer mitochondrial membrane (OMNI) and release the inner mitochondrial membrane (IMM) to form mitoplasts. Mitoplasts were pelleted at 10,500 g for 15 min and resuspended for storage in […] of solution containing 750 mM KCl, 100 mM HEPES and 1 mM EGTA (pH adjusted to 7.2 with KOH) to further release the IMM from the OMNI, see FIG. 1A. […] Mitochondria and mitoplasts were prepared at 0-4° C. and stored on ice for up to 5 h. Tissues were isolated from a mitochondrial calcium uniporter (MCU) knock-out mouse unless otherwise indicated.
A glass pipette recording electrode was used to form a gigaohm seal with the IMM in a bath solution containing 150 mM KCl, 10 mM HEPES, and 1 mM EGTA, pH 7.2 (adjusted with KOH). Capacitive transients were completely compensated right after the seal was formed. The patch of the IMM attached to the glass pipette recording electrode was then ruptured by high-amplitude voltage pulses (200-500 mV).
Currents were recorded using an Axopatch 200B amplifier (Molecular Devices). The current was dropped to −160 mV and then ramped up for 850 mS to +80 mV. All voltages indicated correspond to the mitochondrial matrix in respect to the bath (cytosol). Mitoplast conductance was normalized to the membrane capacitance (Cm) in all tissues examined. Current amplitudes for histograms were measured within 5 mS after stepping the membrane from 0 to −160 mV and were normalized to the total current. Whole-mitoplast control currents were recorded in a bath solution containing 150 mM HEPES, 1.5 mM EGTA, pH 7.0 adjusted with Tris base, osmolarity to 300 mmol/kg with sucrose.
For the assay, the pipette solution contained 110 mM Na-gluconate, 5 mM EGTA, 40 mM HEPES, 5 mM EDTA, and 1 mM NaCl and was tonicity adjusted to ˜350-370 mmol/kg with sucrose and pH adjusted to pH 7 with 1 M NaOH. The control bath solution contained 110 mM Na-gluconate, and 40 mM HEPES and was pH adjusted to pH 7 with 1 M NaOH. When assaying for the effect Ca^2+, 5 mM CaCl2) was added to the described bath solution.
For the DCCD assay, mitoplasts were prepared from wild-type C56BL/6 mice. The pipette solution contained 150 mM tetramethylammonium (TMA) hydroxide, 1.5 mM EGTA, 2 mM MgCl2, and 150 mM HEPES, was tonicity adjusted to ˜450 mmol/kg with sucrose and pH adjusted to pH 7 with D Gluconic Acid, and the bath solution contained 150 mM KCl, 1.5 mM EGTA, and 40 mM HEPES, and was pH adjusted to pH 7.2 with 1 M KOH. When assaying for DCCD effect, 10 μM DCCD was added to the described bath solution. […],
When assaying for inhibitor effect, […] or 5 μM CATR was added to the described bath solution.
For the Na^+ assays, the pipette solution contained 110 mM Na-gluconate, 5 mM EGTA, 40 mM HEPES, 5 mM EDTA, and 1 mM NaCl and was tonicity adjusted to ˜350-370 mmol/kg with sucrose and pH adjusted to pH 7 with 1 M NaOH. The bath solution contained 110 mM Na-gluconate, 5 mM EGTA, 40 mM HEPES, and 5 mM EDTA and was pH adjusted to pH 7 with 1 M NaOH.

[2] = log octanol/water partition coefficient; source not stated; cited from earlier work
[3] = 10 μM antimycin in bath, 125 mM K-gluconate, pH 7

Compound: N/C(=N\C(=O)c1nc(Cl)c(NCc2ccc(I)cc2)nc1N)NCCCCc1ccccc1 [5m, (E)-3-amino-N-(amino((4-phenylbutyl)amino)methylene)-6-chloro-5-((4-iodobenzyl)amino)pyrazine-2-carboxamide]
- effect on monovalent cation conductance ([1]; 1 μM 5m in bath, 125 mM K-gluconate, pH 7): almost completely inhibited

Compound: CCCCCCCCN/C(N)=N/C(=O)c1nc(Cl)c(NCc2ccc(I)cc2)nc1N [5o, (E)-3-amino-N-(amino(octylamino)methylene)-6-chloro-5-((4-iodobenzyl)amino)pyrazine-2-carboxamide]
- effect on monovalent cation conductance ([1]; 1 μM 5o in bath, 125 mM K-gluconate, pH 7): almost completely inhibited

Compound: CN(CCCCCCc1ccccc1)CCCCNC(=O)c1nc(Cl)c(NCc2ccc(Cl)cc2)nc1N [AA6, 3-amino-6-chloro-5-((4-chlorobenzyl)amino)-N-(4-(methyl(6-phenylhexyl)amino)butyl)pyrazine-2-carboxamide]
- effect on monovalent cation conductance ([1]; 200 nM AA6 in bath, 125 mM K-gluconate, pH 7): almost completely inhibited

Compound: CCCCC/C=C\C/C=C\C/C=C\C/C=C\CCCC(=O)O [AA, arachidonic acid]
- effect on monovalent cation conductance ([1]; […] AA in bath, 125 mM K-gluconate, pH 7): little to no effect

Compound: C=C1[C@@H]2CC[C@H]3[C@]4(C)C[C@H](O[C@@H]5O[C@H](CO)[C@@H](OS(=O)(=O)O)[C@H](OS(=O)(=O)O)[C@H]5OC(=O)CC(C)C)CC(C(=O)O)(C(=O)O)[C@H]4CC[C@]3(C2)[C@H]1O [CATR, carboxyatractyloside]
- effect on monovalent cation conductance ([1]; 5 μM CATR in bath, 125 mM K-gluconate, pH 7): little to no effect

Compound: [Ca+2].[Cl-].[Cl-] [Ca^2+, CaCl2]
- effect on monovalent cation conductance ([1]; 5 mM CaCl2 added to bath, 110 mM Na-gluconate, no chelator in bath, pH 7): inhibited

Compound: C(=NC1CCCCC1)=NC1CCCCC1 [DCCD, dicyclohexylcarbodiimide]
- effect on monovalent cation conductance ([1]; 10 μM DCCD in bath, 150 mM KCl bath, TMA pipette, mitoplasts from wild-type C56BL/6 mice): little to no effect

Compound: CCN(c1nc(N)c(C(=O)NC(=N)N)nc1Cl)C(C)C [EIPA, 5-(N-ethyl-N-isopropyl)amiloride]
- Concentration [1]: 80 µM
- effect on monovalent cation conductance ([1]; K+ assay (110 mM K-gluconate, pH 7), 80 μM EIPA in bath): significantly and almost completely inhibited
- effect on monovalent cation conductance ([1]; Na+ assay (110 mM Na-gluconate, pH 7), 100 μM EIPA in bath): significantly and almost completely inhibited

Compound: C[n+]1ccc(-c2ccccc2)cc1 [MPP+, 1-methyl-4-phenylpyridinium]
- effect on monovalent cation conductance ([1]; 0.5 mM MPP+ in bath, 125 mM K-gluconate, pH 7): little to no effect

Compound: CN(C)C(=N)NC(=N)N [Metformin]
- Concentration [1]: 30000 µM
- effect on monovalent cation conductance ([1]; pH 7): almost completely inhibited

Compound: [H]/N=C(/N)N/C(=N/[H])NCCc1ccccc1 [Phenformin]
- logP [2]: −0.83
- Concentration [1]: 2000 µM
- effect on monovalent cation conductance ([1]; 1 mM phenformin in bath, 125 mM K-gluconate, pH 7): almost completely inhibited

Compound: [H]/N=C(\N/C(=N/[H])Nc1ccc(Cl)cc1)NC(C)C [Proguanil]
- logP [2]: 2.53
- Concentration [1]: 100 µM
- effect on monovalent cation conductance ([1]; 100 μM proguanil in bath, 125 mM K-gluconate, pH 7): almost completely inhibited

Compound: C=C(C)[C@H]1Cc2c(ccc3c2O[C@@H]2COc4cc(OC)c(OC)cc4[C@@H]2C3=O)O1 [Rotenone, rotenone]
- effect on monovalent cation conductance ([1]; 10 μM rotenone in bath, 110 mM Na-gluconate, pH 7): little to no effect

Compound: N/C(=N\C(=O)c1nc(Cl)c(N)nc1N)NCc1ccccc1 [benzamil]
- effect on monovalent cation conductance ([1]; 10 μM benzamil in bath, 125 mM K-gluconate, pH 8): little to no effect

Compound: CC(C)(C)c1ccc(CCOc2ncnc3ccccc23)cc1 [fenazaquin]
- effect on monovalent cation conductance ([1]; 10 μM fenazaquin in bath, 110 mM Na-gluconate, pH 7): little to no effect

Compound: Cc1nn(C)c(Oc2ccccc2)c1/C=N/OCc1ccc(C(=O)OC(C)(C)C)cc1 [fenipiroximate]
- effect on monovalent cation conductance ([1]; 0.5 μM fenipiroximate in bath, 125 mM K-gluconate, pH 7): little to no effect

Compound: CO/C(=C/C(N)=O)[C@H](C)[C@H](/C=C/c1csc(-c2csc([C@@H](C)/C=C/C=C/C(C)C)n2)n1)OC [myxothiazol]
- effect on monovalent cation conductance ([1]; 10 μM myxothiazol in bath, 125 mM K-gluconate, pH 7): little to no effect

Compound: CC[C@H]1/C=C/C=C/C[C@@H](C)[C@H](O)[C@@](C)(O)C(=O)[C@@H](C)[C@H](O)[C@@H](C)C(=O)[C@@H](C)[C@H](O)[C@@H](C)/C=C/C(=O)O[C@@H]2[C@H](C)[C@H](CC1)O[C@]1(CC[C@H](C)[C@H](C[C@@H](C)O)O1)[C@H]2C [oligomycin]
- effect on monovalent cation conductance ([1]; 10 oligomycin (unit not given) in bath, 125 mM K-gluconate, pH 7): little to no effect

Compound: C/C=C(\C)[C@H](O)[C@H](C)/C=C(C)/C=C/C/C(C)=C/Cc1nc(OC)c(OC)c(O)c1C [piericidin]
- effect on monovalent cation conductance ([1]; 1 μM piericidin in bath, 110 mM K-gluconate, pH 7): little to no effect

Compound: CCCCCCCCCCC(O)C1CCC(C2CCC(C(O)CCCCCCCCCCC(O)CC3=CC(C)OC3=O)O2)O1 (stereo not drawn) [rolliniastatin]
- effect on monovalent cation conductance ([1]; 2 μM rolliniastatin in bath, 125 mM K-gluconate, pH 7): little to no effect

Compound: C/C=C(C)/C=C/C=C/[C@H](OC)[C@@H](C)[C@@H](OC)[C@@H](C)CCc1oc2c(O)c(OC)cc(OC)c2c(=O)c1C [stigmatellin]
- effect on monovalent cation conductance ([1]; 0.5 μM stigmatellin in bath, 125 mM K-gluconate, pH 7): little to no effect

Compound: Tertiapin Q [TQ]
- effect on monovalent cation conductance ([1]; 0.5 μM TQ in bath, 125 mM K-gluconate, pH 7): little to no effect

Compound: antimycin
- effect on monovalent cation conductance [1, 3]: little to no effect
- uncoupling H+ current overlapping with the K+ current [1, 3]: elicited an uncoupling H^+ current

Compound: atpenin
- effect on monovalent cation conductance ([1]; 0.2 μM or 1 μM atpenin in bath, 125 mM K-gluconate, pH 7): little to no effect

Compound: bullatacin
- effect on monovalent cation conductance ([1]; 1 μM bullatacin in bath, 125 mM K-gluconate, pH 7): little to no effect

— patent US20210223233A1, “Mitochondrial Conductance Inhibitors and Methods of Use Thereof” (The Regents of the University of California, priority 2018, published 2021)
